{"source": "patent US7709223B2", "about": "“Method for detecting bacteria with chromogenic substrates for β-D-ribofuranosidase” (priority 2001, dated 2010)", "assay_in_all_cases": "Hydrolysis on Columbia agar with ferric ammonium citrate", "key": {"[1]": {"tested_on": "C. diphtheriae", "format": "cell-based, Corynebacterium diphtheriae", "experimental": "(§1) The chromogenic β-D-ribofuranoside substrate was added to Columbia agar at a substrate concentration of 300 mg/l. Ferric ammonium citrate was included at 500 mg/l. All ingredients were autoclaved at 116° C. for 20 minutes to ensure sterilisation. Agar plates were then prepared in 90 mm petri dishes. The substrate caused a yellow colouration of the agar.\n(§2) For each strain tested, a bacterial suspension was prepared in sterile deionised water at an inoculum of approximately 1.5×10^8 colony forming units per ml. This was achieved using a densitometer. 1 μl of each bacterial suspension was then inoculated onto each plate using a multipoint inoculator. Strains were inoculated in parallel onto Columbia agar containing ferric ammonium citrate with no substrate (negative control).\n(§3) After 18 hours incubation, strains were examined visually for the presence of colour. Any strains producing a black colouration on substrate containing media but not on the negative control plates were deemed to be hydrolysing the substrate."}, "[2]": {"tested_on": "A. baumanii", "format": "cell-based", "details": "A. baumanii ATCC 19606", "experimental": "as §1, §2, §3"}, "[3]": {"tested_on": "A. calcoaceticus", "format": "cell-based", "details": "A. calcoaceticus ATCC 7844", "experimental": "as §1, §2, §3"}, "[4]": {"tested_on": "Bacillus cereus", "format": "cell-based", "details": "Bacillus cereus NCTC", "experimental": "as §1, §2, §3"}, "[5]": {"tested_on": "Enterococcus casseflavus", "format": "cell-based", "details": "Enterococcus casseflavus NCTC 12361", "experimental": "as §1, §2, §3"}, "[6]": {"tested_on": "Enterococcus durans", "format": "cell-based", "details": "Enterococcus durans NCTC 8307", "experimental": "as §1, §2, §3"}, "[7]": {"tested_on": "Enterococcus gallinarum", "format": "cell-based", "details": "Enterococcus gallinarum NCTC 11428", "experimental": "as §1, §2, §3"}, "[8]": {"tested_on": "Enterococcus mundtii", "format": "cell-based", "details": "Enterococcus mundtii NCTC 12363", "experimental": "as §1, §2, §3"}, "[9]": {"tested_on": "Enterococcus raffinosis", "format": "cell-based", "details": "Enterococcus raffinosis NCTC 13192", "experimental": "as §1, §2, §3"}, "[10]": {"tested_on": "Haemolytic streptococcus B", "format": "cell-based", "experimental": "as §1, §2, §3"}, "[11]": {"tested_on": "Haemolytic streptococcus G", "format": "cell-based", "experimental": "as §1, §2, §3"}, "[12]": {"tested_on": "Listeria ivanovii", "format": "cell-based", "details": "Listeria ivanovii PHLS wild", "experimental": "as §1, §2, §3"}, "[13]": {"tested_on": "M. morganii", "format": "cell-based", "experimental": "as §1, §2, §3"}, "[14]": {"tested_on": "P. mirabilis", "format": "cell-based", "experimental": "as §1, §2, §3"}, "[15]": {"tested_on": "Providencia alcalifaciens", "format": "cell-based", "experimental": "as §1, §2, §3"}, "[16]": {"tested_on": "Providencia stuartii", "format": "cell-based", "experimental": "as §1, §2, §3"}, "[17]": {"tested_on": "Staphylococcus epidermidis", "format": "cell-based", "experimental": "as §1, §2, §3"}, "[18]": {"tested_on": "Streptococcus crista", "format": "cell-based", "details": "Streptococcus crista NCTC 12479", "experimental": "as §1, §2, §3"}, "[19]": {"tested_on": "Streptococcus gordonii", "format": "cell-based", "details": "Streptococcus gordonii NCTC 7865", "experimental": "as §1, §2, §3"}, "[20]": {"tested_on": "Streptococcus milleri", "format": "cell-based", "details": "Streptococcus milleri wild", "experimental": "as §1, §2, §3"}, "[21]": {"tested_on": "Streptococcus mitis", "format": "cell-based", "details": "Streptococcus mitis NCTC 12261", "experimental": "as §1, §2, §3"}, "[22]": {"tested_on": "Streptococcus oralis", "format": "cell-based", "details": "Streptococcus oralis NCTC11427", "experimental": "as §1, §2, §3"}, "[23]": {"tested_on": "Streptococcus pneumoniae", "format": "cell-based", "details": "Streptococcus pneumoniae NCTC 7465", "experimental": "as §1, §2, §3"}, "[24]": {"tested_on": "Streptococcus salivarius", "format": "cell-based", "details": "Streptococcus salivarius NCTC 8618", "experimental": "as §1, §2, §3"}, "[25]": {"tested_on": "Streptococcus sanguis", "format": "cell-based", "details": "Streptococcus sanguis NCTC 7863", "experimental": "as §1, §2, §3"}, "[26]": {"tested_on": "Streptococcus vestibularis", "format": "cell-based", "details": "Streptococcus vestibularis NCTC 12166", "experimental": "as §1, §2, §3"}, "[27]": {"tested_on": "Vibrio alcaligenes", "format": "cell-based", "details": "Vibrio alcaligenes NCTC 12160", "experimental": "as §1, §2, §3"}, "[28]": {"tested_on": "Vibrio anguillarum", "format": "cell-based", "details": "Vibrio anguillarum NCTC 12159", "experimental": "as §1, §2, §3"}, "[29]": {"tested_on": "Vibrio cholerae", "format": "cell-based", "experimental": "as §1, §2, §3"}, "[30]": {"tested_on": "Vibrio furnissii", "format": "cell-based", "details": "Vibrio furnissii NCTC 11218", "experimental": "as §1, §2, §3"}, "[31]": {"tested_on": "Vibrio hollisae", "format": "cell-based", "details": "Vibrio hollisae NCTC 11640", "experimental": "as §1, §2, §3"}, "[32]": {"tested_on": "Vibrio mimicus", "format": "cell-based", "details": "Vibrio mimicus NCTC 11435", "experimental": "as §1, §2, §3"}, "[33]": {"tested_on": "Vibrio vulnificus", "format": "cell-based", "experimental": "as §1, §2, §3"}, "[34]": {"tested_on": "Y. enterocolitica", "format": "cell-based", "experimental": "as §1, §2, §3"}}, "note": "Structures can show the parent of a compound that is named as a salt."}
{"smiles": "O=c1cc(-c2ccc(OC3OC(CO)C(O)C3O)c(O)c2)oc2ccccc12", "note": "[DHF-riboside, 3′,4′-Dihydroxyflavone-4′-β-D-ribofuranoside sodium salt]", "values": [{"measurement": "β-Ribofuranoside (hydrolysis)", "setting": "[1]; C. diphtheriae NCTC 3987", "value": "+"}, {"measurement": "β-Ribofuranoside (hydrolysis)", "setting": "[1]; C. diphtheriae NCTC 10356", "value": "++"}, {"measurement": "β-Ribofuranoside (hydrolysis)", "setting": "[1]; C. diphtheriae NCTC 11397", "value": "++"}, {"measurement": "β-Ribofuranoside (hydrolysis)", "setting": "[1]; Corynebacterium diphtheria NEQAS", "value": "++"}, {"measurement": "Activity with the substrate", "setting": "[1]; Corynebacterium diphtheriae", "value": "active"}, {"measurement": "β-Riboside (hydrolysis)", "setting": "[2]", "value": "−"}, {"measurement": "β-Riboside (hydrolysis)", "setting": "[3]", "value": "−"}, {"measurement": "β-Ribofuranoside (hydrolysis)", "setting": "[4]", "value": "−"}, {"measurement": "β-Ribofuranoside (hydrolysis)", "setting": "[5]", "value": "−"}, {"measurement": "β-Ribofuranoside (hydrolysis)", "setting": "[6]", "value": "−"}, {"measurement": "β-Ribofuranoside (hydrolysis)", "setting": "[7]", "value": "+"}, {"measurement": "β-Ribofuranoside (hydrolysis)", "setting": "[8]", "value": "+"}, {"measurement": "β-Ribofuranoside (hydrolysis)", "setting": "[9]", "value": "+"}, {"measurement": "β-Ribofuranoside (hydrolysis)", "setting": "[10]; Reference No. 1", "value": "−"}, {"measurement": "β-Ribofuranoside (hydrolysis)", "setting": "[10]; Reference No. 2", "value": "−"}, {"measurement": "β-Ribofuranoside (hydrolysis)", "setting": "[10]; Reference No. 3", "value": "−"}, {"measurement": "β-Ribofuranoside (hydrolysis)", "setting": "[11]; Reference No. 1", "value": "−"}, {"measurement": "β-Ribofuranoside (hydrolysis)", "setting": "[11]; Reference No. 2", "value": "−"}, {"measurement": "β-Ribofuranoside (hydrolysis)", "setting": "[11]; Reference No. 3", "value": "+"}, {"measurement": "β-Ribofuranoside (hydrolysis)", "setting": "[12]", "value": "+"}, {"measurement": "β-Riboside (hydrolysis)", "setting": "[13]; M. morganii MMO 1", "value": "+"}, {"measurement": "β-Riboside (hydrolysis)", "setting": "[13]; M. morganii MMO 2", "value": "+"}, {"measurement": "β-Riboside (hydrolysis)", "setting": "[13]; M. morganii NCTC 235", "value": "−"}, {"measurement": "β-Riboside (hydrolysis)", "setting": "[14]; P. mirabilis NCTC 10975", "value": "−"}, {"measurement": "β-Riboside (hydrolysis)", "setting": "[14]; P. mirabilis PMI 1", "value": "−"}, {"measurement": "β-Riboside (hydrolysis)", "setting": "[14]; P. mirabilis PMI 2", "value": "−"}, {"measurement": "β-Riboside (hydrolysis)", "setting": "[15]; Providencia alcalifaciens PAL 1", "value": "+"}, {"measurement": "β-Riboside (hydrolysis)", "setting": "[15]; Providencia alcalifaciens PAL 2", "value": "−"}, {"measurement": "β-Riboside (hydrolysis)", "setting": "[16]; Providencia stuartii PST 1", "value": "+"}, {"measurement": "β-Riboside (hydrolysis)", "setting": "[16]; Providencia stuartii PST 2", "value": "+"}, {"measurement": "β-Ribofuranoside (hydrolysis)", "setting": "[17]; Staphylococcus epidermidis RB60", "value": "++"}, {"measurement": "β-Ribofuranoside (hydrolysis)", "setting": "[17]; Staphylococcus epidermidis RB62", "value": "+"}, {"measurement": "β-Ribofuranoside (hydrolysis)", "setting": "[17]; Staphylococcus epidermidis RB63", "value": "+"}, {"measurement": "β-Ribofuranoside (hydrolysis)", "setting": "[17]; Staphylococcus epidermidis RB64", "value": "+"}, {"measurement": "β-Ribofuranoside (hydrolysis)", "setting": "[17]; Staphylococcus epidermidis RB65", "value": "+"}, {"measurement": "β-Ribofuranoside (hydrolysis)", "setting": "[18]", "value": "−"}, {"measurement": "β-Ribofuranoside (hydrolysis)", "setting": "[19]", "value": "−"}, {"measurement": "β-Ribofuranoside (hydrolysis)", "setting": "[20]", "value": "−"}, {"measurement": "β-Ribofuranoside (hydrolysis)", "setting": "[21]", "value": "−"}, {"measurement": "β-Ribofuranoside (hydrolysis)", "setting": "[22]", "value": "−"}, {"measurement": "β-Ribofuranoside (hydrolysis)", "setting": "[23]", "value": "−"}, {"measurement": "β-Ribofuranoside (hydrolysis)", "setting": "[24]", "value": "−"}, {"measurement": "β-Ribofuranoside (hydrolysis)", "setting": "[25]", "value": "−"}, {"measurement": "β-Ribofuranoside (hydrolysis)", "setting": "[26]", "value": "−"}, {"measurement": "β-Riboside (hydrolysis)", "setting": "[27]", "value": "−"}, {"measurement": "β-Riboside (hydrolysis)", "setting": "[28]", "value": "−"}, {"measurement": "β-Riboside (hydrolysis)", "setting": "[29]; Vibrio cholera NCTC 6585", "value": "−"}, {"measurement": "β-Riboside (hydrolysis)", "setting": "[29]; Vibrio cholera NCTC 7270", "value": "−"}, {"measurement": "β-Riboside (hydrolysis)", "setting": "[29]; Vibrio cholera NCTC 8021", "value": "−"}, {"measurement": "β-Riboside (hydrolysis)", "setting": "[29]; Vibrio cholera NCTC 10732", "value": "−"}, {"measurement": "β-Riboside (hydrolysis)", "setting": "[29]; Vibrio cholera NCTC 12945", "value": "−"}, {"measurement": "β-Riboside (hydrolysis)", "setting": "[29]; Vibrio cholerae NCTC 7254", "value": "−"}, {"measurement": "β-Riboside (hydrolysis)", "setting": "[29]; Vibrio cholerae NCTC 8042", "value": "−"}, {"measurement": "β-Riboside (hydrolysis)", "setting": "[29]; Vibrio cholerae NCTC 10255", "value": "−"}, {"measurement": "β-Riboside (hydrolysis)", "setting": "[29]; Vibrio cholerae NCTC 10954", "value": "−"}, {"measurement": "β-Riboside (hydrolysis)", "setting": "[30]", "value": "−"}, {"measurement": "β-Riboside (hydrolysis)", "setting": "[31]", "value": "−"}, {"measurement": "β-Riboside (hydrolysis)", "setting": "[32]", "value": "−"}, {"measurement": "β-Riboside (hydrolysis)", "setting": "[33]; Vibrio vulnificus NCTC 11066", "value": "−"}, {"measurement": "β-Riboside (hydrolysis)", "setting": "[33]; Vibrio vulnificus NCTC 11067", "value": "−"}, {"measurement": "β-Riboside (hydrolysis)", "setting": "[34]; Y. enterocolitica NCTC 10460", "value": "−"}, {"measurement": "β-Riboside (hydrolysis)", "setting": "[34]; Y. enterocolitica NCTC 11176", "value": "−"}, {"measurement": "β-Riboside (hydrolysis)", "setting": "[34]; Y. enterocolitica NCTC 11177", "value": "−"}, {"measurement": "β-Riboside (hydrolysis)", "setting": "[34]; Y. enterocolitica NCTC 11600", "value": "−"}]}
